Experimental data: BindingDB's records for doi:10.1016/j.bioorg.2017.03.015 (Silesian University of Technology, 2017)

Molecular target: T1, Beta-1,4-galactosyltransferase 1 (Bos taurus, UniProt P08037)
T1 sequence (P08037 whole entry): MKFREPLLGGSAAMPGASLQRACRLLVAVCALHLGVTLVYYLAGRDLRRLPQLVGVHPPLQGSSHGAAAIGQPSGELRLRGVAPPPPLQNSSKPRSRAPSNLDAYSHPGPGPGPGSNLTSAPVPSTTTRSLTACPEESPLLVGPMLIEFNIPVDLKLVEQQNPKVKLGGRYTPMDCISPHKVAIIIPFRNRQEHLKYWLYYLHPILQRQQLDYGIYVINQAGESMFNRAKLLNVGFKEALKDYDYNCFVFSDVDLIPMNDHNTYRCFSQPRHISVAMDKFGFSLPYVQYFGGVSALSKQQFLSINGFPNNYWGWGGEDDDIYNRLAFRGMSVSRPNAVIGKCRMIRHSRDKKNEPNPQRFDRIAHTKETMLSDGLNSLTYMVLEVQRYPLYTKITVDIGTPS
Assay: β-1,4-Galactosyltransferase I Assay
Details: pH 5.4; 30 °C
Experimental: β4GalT activity was assayed using UDP-Gal as glycosyl donor and (6-esculetinyl) β-D-glucopyranoside (esculine) as glycosyl acceptor. Assays were performed in a total volume of 200 μL. The reaction mixtures contained reagents in the following final concentrations: 50 mM Hepes buffer (pH 5.4), 10 mM MnCl2, 2.0 mg/mL BSA, 200 μM esculine, 40 μM UDP-Gal, 10 μL MeOH and potential inhibitors 1-6 at 0.8 mM concentration. The enzymatic reactions were initiated by the addition of 1 mU β4GalT and incubated at 30 °C for 60 min. Inactivation was quickly done by placing of the reaction solutions for 3 min in a thermo block set to 90 °C. Thesolutions were diluted with water (300 μL) and centrifuged for 20 min, filtered through M.E. Cellulose filter (0.2 μm × 13 mm) and the filtrate was injected into RP-HPLC system.

IC50: 720 µM
SMILES: O=c1ccn([C@@H]2O[C@H](Cn3cc(CO[C@@H]4OC(CO)[C@@H](O)C(O)C4O)nn3)C(O)C2O)c(=O)[nH]1 (stereo partly drawn) [5'-deoxy-5'-[4-(β-D-glucopyranosyloxymethyl)-1,2-3-triazol-1-yl]uridine (5)]
